This is an account of results in patent US5725871A, “Drug delivery compositions comprising lysophosphoglycerolipid” (Danbiosyst UK Limited, priority 1989, dated 1998).

The conditions of the assay: sheep, intranasal 2.0 IU/kg insulin, LPG versus LPC.

Procedure: The sheep were divided into 4 groups of 5 animals each. Group 1 received 2.0 IU/kg insulin together with 2.0 mg/kg SMS 45/25 microspheres (Pharmacia) and 0.2 mg/kg LPC (Formulation 1) intranasally in the form of a lyophilised powder. A sheep of 50 kg thus received 100 IU of insulin together with 100 mg SMS 45/25 microspheres and 10.0 mg LPC. Group 2 received 2.0 IU/kg insulin together with 2.0 mg/kg SMS 45/25 microspheres and 0.2 mg/kg LPG Formulation 2) intranasally in the form of a lyophilised powder. A sheep of 50 kg thus received 100 IU of insulin together with 100 mg SMS 45/25 microspheres and 10.0 mg LPG. Group 3 received 2.0 IU/kg insulin together with 0.02 mg/kg LPC (Formulation 3) intranasally in the form of a solution at 0.01 ml/kg. A sheep of 50 kg thus received 100 IU of insulin together with 1.0 mg LPC in a volume of 0.5 ml. Group 4 received 2.0 IU/kg insulin together with 0.02 mg/kg LPG (Formulation 4) intranasally in the form of a solution at 0.01 ml/kg. A sheep of 50 kg thus received 100 IU of insulin together with 1.0 mg LPG in a volume of 0.5 ml. […]
Sedation/Blood Sampling: For the intranasal studies, the sheep were sedated by use of an i.v. dose of ketamine hydrochloride (Ketalar (Regd. T.M.), 100 mg/ml injection) at 2.25 mg/kg. […] Each blood sample was divided into two parts and analysed as in Example 1.

On to L-α-lysophosphatidyl-DL-glycerol [LPG], for which the Plasma glucose levels result is “lower (i.e. better) with LPG”.
